Assay results: paper PMC11589570, “Critical assessment of LC3/GABARAP ligands used for degrader development and ligandability of LC3/GABARAP binding pockets” (Nature Communications, 2024)
Values joined by “and” are separate entries in the source; they are usually repeats but may differ in a detail not shown here. Equal entries are not always repeated.

Experiments:
Experiment in all cases: FP assay with Cy5-labelled p62 LIR tracer (protein titration and tracer displacement)
[1] = molecular target: LC3C (Homo sapiens, UniProt Q9BXW4); assay type: binding; settings: for normalized FP signal, p62 LIR tracer displacement: LC3C; for compound titration LC3C (displacement curve, FP signal): two replicate columns per compound
[2] = molecular target: GABARAP (Homo sapiens, UniProt O95166); assay type: binding; settings: for normalized FP signal, p62 LIR tracer displacement: GABARAP; for compound titration GABARAP (displacement curve, FP signal): two replicate columns per compound
[3] = molecular target: GABARAPL1 (Homo sapiens, UniProt Q9H0R8); assay type: binding; settings: for normalized FP signal, p62 LIR tracer displacement: GABARAPL1; for compound titration GABARAPL1 (displacement curve, FP signal): two replicate columns per compound; for FP tracer displacement curve signal (compound titration): duplicate values
[4] = molecular target: GABARAPL2 (Homo sapiens, UniProt P60520); settings: GABARAPL2
[5] = log10 concentration [M] -3.82391, listed as 8F20
[6] = log10 concentration [M] -4.1549, listed as 8F20
[7] = log10 concentration [M] -4.60206, listed as 8F20
[8] = log10 concentration [M] -5, listed as 8F20
[9] = log10 concentration [M] -5.30103, listed as 8F20
[10] = log10 concentration [M] -5.69897, listed as 8F20
[11] = log10 concentration [M] -6.22185, listed as 8F20
[12] = log10 concentration [M] -6.69897, listed as 8F20
[13] = log10 concentration [M] -7.30103, listed as 8F20
[14] = log10 concentration [M] -7.79588
[15] = log10 concentration [M] -7.79588, listed as 8F20
[16] = log10 concentration [M] -8.08092, listed as 8F20
[17] = log10 concentration [M] -3.82391
[18] = log10 concentration [M] -4.1549
[19] = log10 concentration [M] -4.60206
[20] = log10 concentration [M] -5.30103
[21] = log10 concentration [M] -5.69897
[22] = log10 concentration [M] -6.22185
[23] = log10 concentration [M] -6.69897
[24] = log10 concentration [M] -7.30103
[25] = log10 concentration [M] -8.08092

Sequence of GABARAP (O95166 1-116): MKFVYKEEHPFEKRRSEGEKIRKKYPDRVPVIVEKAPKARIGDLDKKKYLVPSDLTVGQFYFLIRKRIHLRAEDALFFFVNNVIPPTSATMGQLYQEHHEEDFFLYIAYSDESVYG
Sequence of GABARAPL2 (P60520 whole entry): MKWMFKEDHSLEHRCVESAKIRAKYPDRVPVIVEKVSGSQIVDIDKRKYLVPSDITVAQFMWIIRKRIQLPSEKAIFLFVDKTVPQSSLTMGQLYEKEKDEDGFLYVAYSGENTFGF
Sequence of LC3C (Q9BXW4 1-126): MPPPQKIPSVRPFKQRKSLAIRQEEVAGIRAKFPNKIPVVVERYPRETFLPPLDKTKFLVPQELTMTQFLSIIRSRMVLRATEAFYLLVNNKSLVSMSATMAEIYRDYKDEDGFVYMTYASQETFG
Sequence of GABARAPL1 (Q9H0R8 whole entry): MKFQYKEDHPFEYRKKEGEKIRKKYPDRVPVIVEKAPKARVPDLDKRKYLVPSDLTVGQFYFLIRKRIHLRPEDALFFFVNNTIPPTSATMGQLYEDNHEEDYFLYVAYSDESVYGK

`Cc1ccc(C(=O)N(CCCN)[C@@H](c2nc3cc(Cl)ccc3c(=O)n2Cc2ccccc2)C(C)C)cc1` [compound 3, (R)-N-(3-aminopropyl)-N-(1-(3-benzyl-7-chloro-4-oxo-3,4-dihydroquinazolin-2-yl)−2-methylpropyl)−4-methylbenzamide] was tested, and the “normalized FP signal, p62 LIR tracer displacement” value (shortened to “normalized FP signal”) [1, 5] was 89.8 and 92.8, the “normalized FP signal” value [1, 6] was 92.6 and 95.4 and the “normalized FP signal” value [1, 7] was 97.8 and 100.8. The “normalized FP signal” value [1, 8] was 94.6 and 96.4, the “normalized FP signal” value [1, 9] was 98.8 and 92.6 and the “normalized FP signal” value [1, 10] was 85.8 and 92.2. The “normalized FP signal” value [1, 11] was 93.8 and 95, the “normalized FP signal” value [1, 12] was 99.2 and 96.4 and the “normalized FP signal” value [1, 13] was 101 and 100.8. The “normalized FP signal” value [1, 14] was 94.6, the “normalized FP signal” value [1, 15] was 93.4 and the “normalized FP signal” value [1, 16] was 95.2 and 100.4. The “compound titration LC3C (displacement curve, FP signal)” value (“compound titration LC3C” below) [1, 17] was 89.8 and 92.8, the “compound titration LC3C” value [1, 18] was 92.6 and 95.4 and the “compound titration LC3C” value [1, 19] was 97.8 and 100.8. The “compound titration LC3C” value ([1]; log10 concentration [M] -5) was 94.6 and 96.4, the “compound titration LC3C” value [1, 20] was 98.8 and 92.6 and the “compound titration LC3C” value [1, 21] was 85.8 and 92.2. The “compound titration LC3C” value [1, 22] was 93.8 and 95, the “compound titration LC3C” value [1, 23] was 99.2 and 96.4 and the “compound titration LC3C” value [1, 24] was 101 and 100.8. For the same compound, the “compound titration LC3C” value [1, 14] was 93.4 and 94.6, the “compound titration LC3C” value [1, 25] was 95.2 and 100.4 and the “normalized FP signal” value [2, 5] was 89.6552 and 90.5172. For the same compound, the “normalized FP signal” value [2, 6] was 93.7931 and 93.9655, the “normalized FP signal” value [2, 7] was 101.379 and 97.931 and the “normalized FP signal” value [2, 8] was 97.4138 and 100.172. For the same compound, the “normalized FP signal” value [2, 9] was 96.2069 and 97.931, the “normalized FP signal” value [2, 10] was 90 and 89.6552 and the “normalized FP signal” value [2, 11] was 96.2069 and 96.5517. For the same compound, the “normalized FP signal” value [2, 12] was 96.5517 and 96.3793, the “normalized FP signal” value [2, 13] was 100 and 98.2759 and the “normalized FP signal” value [2, 14] was 95.5172. The “normalized FP signal” value [2, 16] was 97.069 and 98.1034, the “compound titration GABARAP (displacement curve, FP signal)” value [2, 17] was 89.6552 and 90.5172 and the “compound titration GABARAP (displacement curve, FP signal)” value [2, 18] was 93.7931 and 93.9655. For the same compound, the “compound titration GABARAP (displacement curve, FP signal)” value [2, 19] was 101.379 and 97.931, the “compound titration GABARAP (displacement curve, FP signal)” value ([2]; log10 concentration [M] -5) was 97.4138 and 100.172 and the “compound titration GABARAP (displacement curve, FP signal)” value [2, 20] was 96.2069 and 97.931. The “compound titration GABARAP (displacement curve, FP signal)” value [2, 21] was 90 and 89.6552, the “compound titration GABARAP (displacement curve, FP signal)” value [2, 22] was 96.2069 and 96.5517 and the “compound titration GABARAP (displacement curve, FP signal)” value [2, 23] was 96.5517 and 96.3793. For the same compound, the “compound titration GABARAP (displacement curve, FP signal)” value [2, 24] was 100 and 98.2759, the “compound titration GABARAP (displacement curve, FP signal)” value [2, 14] was 95.5172 and the “compound titration GABARAP (displacement curve, FP signal)” value [2, 25] was 97.069 and 98.1034. The “normalized FP signal” value [3, 5] was 96.5714 and 97.4286, the “normalized FP signal” value [3, 6] was 97.2857 and 99 and the “normalized FP signal” value [3, 19] was 101. The “normalized FP signal” value [3, 8] was 101.143 and 102, the “normalized FP signal” value [3, 20] was 100.143 and the “normalized FP signal” value [3, 10] was 94.7143 and 94.5714. The “normalized FP signal” value [3, 11] was 98.2857 and 100.429, the “normalized FP signal” value [3, 12] was 99.7143 and 102.286 and the “normalized FP signal” value [3, 13] was 103.571 and 102.286. The “normalized FP signal” value [3, 15] was 96.8571 and 101.571, the “normalized FP signal” value [3, 16] was 99.1429 and 98.1429 and the “compound titration GABARAPL1 (displacement curve, FP signal)” value (shortened to “compound titration GABARAPL1”) [3, 17] was 96.5714 and 97.4286. For the same compound, the “compound titration GABARAPL1” value [3, 18] was 97.2857 and 99, the “compound titration GABARAPL1” value [3, 19] was 101 and the “compound titration GABARAPL1” value ([3]; log10 concentration [M] -5) was 101.143 and 102. For the same compound, the “FP tracer displacement curve signal (compound titration)” value (“FP tracer displacement curve signal” for short) [3, 10] was 94.7143 and 94.5714, the “FP tracer displacement curve signal” value [3, 11] was 98.2857 and 100.429 and the “FP tracer displacement curve signal” value [3, 12] was 99.7143 and 102.286. For the same compound, the “FP tracer displacement curve signal” value [3, 13] was 103.571 and 102.286, the “FP tracer displacement curve signal” value [3, 15] was 96.8571 and 101.571 and the “FP tracer displacement curve signal” value [3, 16] was 99.1429 and 98.1429. The “normalized FP signal” value [4, 5] was 94 and 100, the “normalized FP signal” value [4, 6] was 98.4 and 97.2 and the “normalized FP signal” value [4, 7] was 98.4 and 102.4. For the same compound, the “normalized FP signal” value ([4]; log10 concentration [M] -5) was 103.2, the “normalized FP signal” value [4, 9] was 100.4 and 101.6 and the “normalized FP signal” value [4, 10] was 96.8 and 92. The “normalized FP signal” value [4, 11] was 103.6 and 100.4, the “normalized FP signal” value [4, 12] was 101.2 and 96 and the “normalized FP signal” value [4, 13] was 107.2 and 97.6. For the same compound, the “normalized FP signal” value [4, 15] was 97.2 and 95.6 and the “normalized FP signal” value [4, 16] was 101.2 and 103.6.
